# Results reported in patent US9249154B2, “Compounds and therapeutic use thereof for protein kinase inhibition” (priority 2008, dated 2016).
# Where two headings read alike, the source gives them in different places.
# Assays:
# Human colon cancer HT-29 = test: In vitro anti-cancer cell activity (cellular toxicity, SRB and MTT methods, 72 hours); format: cell-based; details: read-out: In vitro anti-cancer cell activities IC50, Human colon cancer HT-29
# [1] = test system: Human Ovarian cancer (A2780); test: as above; format: cell-based; details: read-out: In vitro anti-cancer cell activities IC50, Human Ovarian cancer (A2780)
# [2] = test system: Human Gastric Cancer (BGC-823); test: as above; format: cell-based; details: read-out: In vitro anti-cancer cell activities IC50, Human Gastric Cancer (BGC-823)
# Mouse Lung Cancer (3LL) = test: as above; format: cell-based; details: read-out: In vitro anti-cancer cell activities IC50, Mouse Lung Cancer (3LL)
# [3] = test system: transplanted human colon cancer HT-99; test: Effects on HT99 transplanted nude mice; format: in vivo; details: 60 mg/kg ip, d0, 1; for RTV (relative tumor volume) / TV dn: X ± SD; for TV dn: dn = 17 days after drug treatment
Compound,IC50 [2] [µM],T/C [3] [%],RTV (relative tumor volume) [3],TV dn [3] [mm^3],IC50 (Mouse Lung Cancer (3LL); Mus musculus) [µM],also measured
"2-(4-chlorophenyl)-4-(3-α-thiapyranmethy)-thieno[2,3-d]pyridazine-7-carboxylic acid amide [Compound 11]",9.24,113.4,7.52 ± 0.26,1224 ± 440,,IC50 (Human colon cancer HT-29): 10.7 µM; IC50 [1]: 11.8 µM; IC50 (Mouse Lung Cancer (3LL)): 8.43 µM
"NC(=O)c1nnc(CC2CCNCC2)c2cc(-c3ccc(Cl)cc3)sc12 [Compound 5, 2-(4-chlorophenyl)-4-(4-piperidinemethy)-thieno[2,3-d]pyridazine-7-carboxylic acid amide]",,96.5,6.40 ± 0,910 ± 0,,
"NC(=O)c1nnc(Cc2ccncc2)c2cc(-c3ccc(Cl)cc3)sc12 [Compound 13, 2-(4-chlorophenyl)-4-(4-pyridinemethy)-thieno[2,3-d]pyridazine-7-carboxylic acid amide]",2.62,,,,,IC50 (Human colon cancer HT-29): 0.73 µM; IC50 [1]: 1.18 µM; IC50 (Mouse Lung Cancer (3LL)): 1.24 µM
"NC(=O)c1nnc(Cc2cc[nH]c2)c2cc(-c3ccc(Cl)cc3)sc12 [Compound 14, 2-(4-chlorophenyl)-4-(3-pyrrolemethy)-thieno[2,3-d]pyridazine-7-carboxylic acid amide]",30.5,,,,,IC50 (Human colon cancer HT-29): 16.8 µM; IC50 [1]: 6.01 µM; IC50 (Mouse Lung Cancer (3LL)): 8.59 µM
"NC(=O)c1nnc(Cc2ccoc2)c2cc(-c3ccc(Cl)cc3)sc12 [Compound 15, 2-(4-chlorophenyl)-4-(3-furanmethy)-thieno[2,3-d]pyridazine-7-carboxylic acid amide]",2.25,,,,,
CN(C)C(=O)c1nnc(CC2CCCOC2)c2cc(-c3ccc(Cl)cc3)sc12 (centres unmarked) [Compound 19],,68.3,4.53 ± 0.82,663 ± 86,,
NC(=O)c1nnc(CC2CCNC2)c2cc(-c3ccc(Br)cc3)sc12 (centres unmarked) [Compound 22],,70.7,4.69 ± 0.71,714 ± 127,,
NC(=O)c1nnc(CC2CCOC2)c2cc(-c3ccc(F)cc3)sc12 (centres unmarked) [Compound 23],,,,,> 100,
NC(=O)c1nnc(CC2CCOC2)c2cc(-c3ccc(Cl)cc3)sc12 (centres unmarked) [Compound 24],,,,,> 100,IC50 (Human colon cancer HT-29; Homo sapiens): > 100 µM; IC50 ([1]; Homo sapiens): > 100 µM; IC50 ([2]; Homo sapiens): 24.6 µM
NC(=O)c1nnc(CC2CCNC2)c2cc(-c3ccc(Cl)cc3)sc12 (centres unmarked) [Compound 30],,57.0,3.78 ± 1.09,482 ± 83,,
NC(=O)c1nnc(CC2CCNC2)c2cc(-c3ccc(Cl)cc3)sc12 (centres unmarked) [Compound 31],,80.8,5.36 ± 1.94,785 ± 300,,
NC(=O)c1nnc(Cc2cccnc2)c2cc(-c3ccc(F)cc3)sc12 [Compound 38],,,,,3.13,
CN(C)C(=O)c1nnc(Cc2ccoc2)c2cc(-c3ccc(Cl)cc3)sc12 [Compound 70],,,,,> 100,
